This is an account of results in patent publication US20190083498A1, “THERAPIES FOR HEMATOLOGIC MALIGNANCIES” (GILEAD CALISTOGA LLC, priority 2008, published 2019).

For series [1], the system named is LB and INA-6 MM cells with BMSCs. Description: Paracrine MM cell growth, cytokine secretion and signaling with BMSCs. It counts as cell-based, human. The note with it: 48 h. The protocol:
MM cells (2×10^4 cells/well) were cultured for 48 h in BMSC coated 96-well plates (Costar, Cambridge, Mass.), in the presence or absence of drug. DNA synthesis was measured by [3H]-thymidine (Perkin-Elmer, Boston, Mass.) uptake, with [3H]-thymidine (0.5μ Ci/well) added during the last 8 h of 48 h cultures. All experiments were performed in quadruplicate.
Cytokine secretion by human BMSCs cocultured with MM cells was assessed by ELISA. […] After 48 h, supernatants were harvested and stored at −80° C. Cytokines were measured using Duo set ELISA Development Kits (R&D Systems, Minneapolis, Minn.). All measurements were carried out in triplicate.
The cytokine levels in culture supernatants were assessed using Proteome Profiler Antibody Arrays Panel A (R&D Systems, Minneapolis, Minn.), Supernatants from co-cultures with BMSCs were incubated for 4 hours with membranes arrayed with Abs against 37 cytokines, according to manufacturer's instructions.
DNA synthesis was determined by [3H]-thymidine incorporation. Data represent means (±SD) of triplicate cultures.
Error bars indicate SD (±).
INA-6 cells cultured with or without BMSCs were treated with compound for 48 h. Total cell lysates were subjected to immunoblotting using indicated antibodies, FIG. 34F. Actin was used as a loading control.

Series [2] has as its system p110δ-negative cell lines. Description: Growth inhibition of p110δ-negative MM cell lines, MTT. The series is classed as cell-based, human. The following applies: 48 h.
The next series relates to INA-6 cells. The experiment in a line: AKT and ERK pathway phosphorylation, immunoblotting. The series is classed as cell-based, human. An excerpt:
Whole-cell lysates were subjected to sodium dodecyl sulfate-polyacrylamide gel electrophoresis (SDS-PAGE) separation, transferred to Pure Nitrocellulose membranes (Bio-Rad Laboratories, Hercules, Calif.), and immunoblotted with anti-AKT, phospho(p)-AKT (Ser473, Thr 308), ERK1/2 , P-ERK1/2, P-PDK1, STAT, P-STAT, P-FKRHL, P-70S6K, LC3, and PI3K/p110 α Abs (Cell Signaling Danvers, Mass.); anti-p110β, PI3K/p110δ, Glyceraldehyde 3-phosphate dehydrogenase (GAPDH), α-tubulin, and actin Abs (Santa Cruz Biotechnology, Calif.); and anti-p110 γ Ab (Alexis, San Diego, Calif.): and anti-LC3 Ab (Abgent, San Diego, Calif.).
Actin Ab was used as a loading control. […] Whole cell lysates were subjected to immunoblotting using AKT, P-AKT (Ser473 and Thr308), ERK1/2, P-ERK1/2, P-PDK1, and P-FKRHL antibodies. α-tubulin is used as a loading control.

Series [3] has as its system Akt (Ser473) phosphorylation. The experiment in a line: Akt phosphorylation in ALL cell lines. It counts as cell-based.
A further series has as its system BMSCs. The experiment in a line: BMSC viability, MTT. It counts as cell-based, human. The following applies: 0-20 μM, 48 h. Here is the method:
Cell viability was assessed by MTT assay, FIG. 34G. Values represent mean ±SD of triplicate cultures.

The subject of another series is phospho-Akt(Ser473). Description: Constitutive Akt phosphorylation in leukemia and lymphoma cell lines, immunoblot. It counts as cell-based. The protocol: A large panel of leukemia and lymphoma cell lines was assessed for constitutive Akt phosphorylation. These cell lines represent B-lymphoma, T-lymphoma, ALL, Malignant histiocytosis, DLBCL and AML. […] Thereafter, cell were lysed, size-fractioned and immunoblotted with antibodies directed against phospho-Akt(Ser473).
The PI3K pathway is frequently deregulated in leukemia and lymphoma cell lines. […] In addition, PI3K pathway activation is dependent on p110δ.
For orientation: A western blot detects proteins with antibodies after separation by electrophoresis.

In a further series the test system is HuVECs. Description: In vitro angiogenesis assay, endothelial cell tube formation. It counts as cell-based, human. The following applies: 0, 1.0, or 10 μM; 8 h. Here is the method: HUVEC and endothelial growth media were obtained from Lonza (Walkersville, Md., USA). […] After 8 h, tube formation was evaluated using Leika DM IL microscopy (Leica Microsystems, Wetzlar, Germany) and analyzed with IM50 software (Leica Microsystems Imaging Solutions, Cambridge, UK). HUVEC cell migration and rearrangement was visualized, and the number of branching points counted.
The effect of P110 δ inhibition on angiogenesis was investigated.

For the next series, the system named is LB cells. Description: LB cell proliferation with or without BMSCs, [3H]-thymidine uptake. It counts as cell-based, human. The note with it: 0.625 μM-10 μM, 48 hours. The protocol:
LB cells were cultured with control media, and with the compound of formula I for 48 hours, in the presence or absence of BMSCs. Cell proliferation was assessed using [^3H]-thymidine uptake assay. All data represent mean (±SD) of triplicate experiment.

Series [4] relates to T47D and HS-578T cell lines. The experiment in a line: Proliferation of breast cancer cell lines, AlamarBlue. It counts as cell-based. The note with it: with serum. The protocol: T47D and HS-578T cell lines were grown in the presence of serum plus the indicated concentrations of the compound of formula I. Proliferation was measured in triplicate wells by AlamarBlue® assay (Invitrogen) 96-well plates.

Series [5] is described as follows: Blood glucose and insulin levels of a subject. The series is classed as in vivo, human.

Each structure is given as a SMILES string. Several values for one entry are separate records, joined by “and”; a condition that tells them apart may be missing. Equal values may be shown once.

Consider `CC[C@H](Nc1ncnc2[nH]cnc12)c1nc2cccc(F)c2c(=O)n1-c1ccccc1` [Compound I, 5-fluoro-3-phenyl-2-[1-(9H-purin-6-ylamino)-propyl]-3H-quinazolin-4-one], for which the “MM cell growth induced by BMSCs” value in series [1] (2.5, 5, 10 μM) was “inhibited”. For the same compound, the “cytokine secretion induced by BMSCs” value in series [1] (ELISA, cytokine arrays) is “inhibited”. Besides, the “phosphorylation of AKT and ERK induced by BMSCs” value in series [1] (INA-6 with BMSCs) is given as “inhibited”. Also, the “cytotoxicity in p110δ-negative cell lines” value in series [2] is “minimal cytotoxicity”. Besides, the “phosphorylation of upstream PDK-1 and downstream FKHRL” value in the series on INA-6 cells (INA-6 and LB MM cells, 0-6 hours) was “significantly inhibited”. The “phosphorylation of AKT and ERK1/2” value in the series on INA-6 cells (p110δ positive INA-6 cells) is “significantly blocked”. Moreover, the “Akt phosphorylation in ALL cell lines” value in series [3] is reported as “reduction in Akt phosphorylation”. Besides, the “growth inhibition in BMSCs” value with BMSCs was “no significant growth inhibition”. Moreover, the “cell lines in which constitutive AKT phosphorylation was inhibited (FIG. 9)” value in the series on phospho-Akt(Ser473) (10 μM, 2 hrs, including B-cell and T-cell lymphomas) is listed as 11 out of 11. The “constitutive Akt(Ser473) phosphorylation” value with phospho-Akt(Ser473) (hematopoietic tumor cell lines, 2 hours) is “Reduction in Akt(Ser473) was achieved for all cell lines”. For the same compound, in the series on phospho-Akt(Ser473) (leukemia and lymphoma cell lines with constitutive p-AKT), the “cell lines in which constitutive AKT phosphorylation was inhibited” value was 13 of 13 and 13 out of 13. Besides, the capillary-like tube formation entry in the series on HuVECs is “inhibited capillary-like tube formation in a dose-dependent fashion”. Further, the “LB cell growth in the presence of BMSC” value in the series on LB cells is reported as “reduced”. Besides, the “proliferation of breast cancer cell lines” value in series [4] is on record as “inhibits proliferation”. For the same compound, the insulin levels result in [5] (after 7 days of treatment) is given as “remained within the normal range”. Further, the blood glucose concentration result in series [5] (after 10 days, highest dosage (50-200 mg BID)) was “remained steady”.
